The nature of series [1]: Two-way crossover drug interaction study: plasma ritonavir PK with (Treatment A) and without (Treatment B) TH9507. It is filed as in vivo, human. The protocol:
(§1) 2 ml of TH9507 (1 mg/ml injectable solution) was administered by subcutaneous injection under fasting conditions once daily for 7 consecutive days (daily dose of 2 mg TH9507).
(§2) N=32 healthy adult (male and female) subjects were enrolled. Dosing occurred in two groups.
(§3) PK/statistics: PK parameters were calculated using standard noncompartmental approaches.
(§4) The 90% CIs for the Treatment A/Treatment B LSM ratios for AUC0-t.

Series [2] is described as follows: Plasma TH9507 PK (ELISA) on day 6 in the ritonavir interaction study. It is filed as in vivo. The note with it: both sexes, human, sc, 2 mg s.c. once daily. On the procedure:
as §1, §2, §3
On the technique in general: An ELISA detects its analyte on a solid surface through an enzyme-linked reagent.

Series [3] concerns CYP3A. Put plainly: Impact of TH9507 on CYP3A activity, concluded from the ritonavir PK interaction study. The note with it: 2 mg TH9507 s.c. days 1 to 7, ritonavir as probe. It is filed as in vivo, human.
From the text: as §4

On to `CC(C)c1nc(CN(C)C(=O)N[C@H](C(=O)N[C@@H](Cc2ccccc2)C[C@H](O)[C@H](Cc2ccccc2)NC(=O)OCc2cncs2)C(C)C)cs1` [Ritonavir, 1,3-thiazol-5-ylmethyl N-[(2S,3S,5S)-3-hydroxy-5-[(2S)-3-methyl-2-{[methyl({[2-(propan-2-yl)-1,3-thiazol-4-yl]methyl})carbamoyl]amino}butanamido]-1,6-diphenylhexan-2-yl]carbamate], for which the concentration in series [1] (both sexes, human, plasma, oral, 100 mg) peaked (Cmax) at 453 ng/mL. Besides, in series [1] (both sexes, human, plasma, oral, 100 mg, read-out: AUC0-inf Treatment B), the AUC(0-inf) was 3800 ng·h/mL. Moreover, the AUC(0-t) in series [1] (both sexes, human, plasma, oral, 100 mg, read-out: AUC0-t Treatment B) turned out to be 3720 ng·h/mL. The half-life in series [1] (both sexes, human, plasma, oral, 100 mg, read-out: T1/2 Treatment B (converted)) was 6.26 h. Besides, the Tmax in series [1] (both sexes, human, plasma, oral, 100 mg, read-out: Tmax Treatment B) came out at 4.5 h; in series [1] (both sexes, human, plasma, oral, read-out: Tmax Treatment A), 4.5 h. Also, the “T1/2 Treatment A” value in series [1] (plasma ritonavir, with TH9507, arithmetic mean (% CV)) is recorded as 5.72 (23.0) h.
Take `CC/C=C/CC(=O)N[C@@H](Cc1ccc(O)cc1)C(=O)N[C@@H](C)C(=O)N[C@@H](CC(=O)O)C(=O)N[C@@H](C)C(=O)N[C@H](C(=O)N[C@@H](Cc1ccccc1)C(=O)N[C@H](C(=O)N[C@@H](CC(N)=O)C(=O)N[C@@H](CO)C(=O)N[C@@H](Cc1ccc(O)cc1)C(=O)N[C@@H](CCCNC(=N)N)C(=O)N[C@@H](CCCCN)C(=O)N[C@H](C(=O)N[C@@H](CC(C)C)C(=O)NCC(=O)N[C@@H](CCC(N)=O)C(=O)N[C@@H](CC(C)C)C(=O)N[C@@H](CO)C(=O)N[C@@H](C)C(=O)N[C@@H](CCCNC(=N)N)C(=O)N[C@@H](CCCCN)C(=O)N[C@@H](CC(C)C)C(=O)N[C@@H](CC(C)C)C(=O)N[C@@H](CCC(N)=O)C(=O)N[C@@H](CC(=O)O)C(=O)N[C@H](C(=O)N[C@@H](CCSC)C(=O)N[C@@H](CO)C(=O)N[C@@H](CCCNC(=N)N)C(=O)N[C@@H](CCC(N)=O)C(=O)N[C@@H](CCC(N)=O)C(=O)NCC(=O)N[C@@H](CCC(=O)O)C(=O)N[C@@H](CO)C(=O)N[C@@H](CC(N)=O)C(=O)N[C@@H](CCC(N)=O)C(=O)N[C@@H](CCC(=O)O)C(=O)N[C@@H](CCCNC(=N)N)C(=O)NCC(=O)N[C@@H](C)C(=O)N[C@@H](CCCNC(=N)N)C(=O)N[C@@H](C)C(=O)N[C@@H](CCCNC(=N)N)C(=O)N[C@@H](CC(C)C)C(N)=O)[C@@H](C)CC)C(C)C)[C@@H](C)O)[C@@H](C)CC` [TH9507, (hexenoyl trans-3)hGRF(1-44)NH2]: the half-life in series [2] (arithmetic mean) is 6.6 min. Moreover, in series [2] (geometric mean), the AUC(0-inf) worked out at 0.79 ng·h/mL, the AUC(0-t) turned out to be 0.657 ng·h/mL and the Cmax worked out at 2.7 ng/mL. For the same compound, the Tmax in series [2] (median) worked out at 9 min. The “impact on CYP3A activity” value in series [3] is recorded as “not significant”.

The Cmax is the peak of the concentration-time curve. As a reminder, the Tmax is the time at which the peak concentration occurs.

Source of the values: patent US20100267635A1, “USE OF PROTEASE INHIBITORS AND GRF MOLECULES IN COMBINATION THERAPY” (THERATECHONOLGIES INC., priority 2009, published 2010).
